{
  "source": "paper PMC11187827",
  "about": "(Journal of natural products, 2020)",
  "key": {"[1]": {"biological_target": "DAT (dopamine transporter) (Homo sapiens, UniProt Q01959)", "sequence (Q01959 whole entry, species assumed)": "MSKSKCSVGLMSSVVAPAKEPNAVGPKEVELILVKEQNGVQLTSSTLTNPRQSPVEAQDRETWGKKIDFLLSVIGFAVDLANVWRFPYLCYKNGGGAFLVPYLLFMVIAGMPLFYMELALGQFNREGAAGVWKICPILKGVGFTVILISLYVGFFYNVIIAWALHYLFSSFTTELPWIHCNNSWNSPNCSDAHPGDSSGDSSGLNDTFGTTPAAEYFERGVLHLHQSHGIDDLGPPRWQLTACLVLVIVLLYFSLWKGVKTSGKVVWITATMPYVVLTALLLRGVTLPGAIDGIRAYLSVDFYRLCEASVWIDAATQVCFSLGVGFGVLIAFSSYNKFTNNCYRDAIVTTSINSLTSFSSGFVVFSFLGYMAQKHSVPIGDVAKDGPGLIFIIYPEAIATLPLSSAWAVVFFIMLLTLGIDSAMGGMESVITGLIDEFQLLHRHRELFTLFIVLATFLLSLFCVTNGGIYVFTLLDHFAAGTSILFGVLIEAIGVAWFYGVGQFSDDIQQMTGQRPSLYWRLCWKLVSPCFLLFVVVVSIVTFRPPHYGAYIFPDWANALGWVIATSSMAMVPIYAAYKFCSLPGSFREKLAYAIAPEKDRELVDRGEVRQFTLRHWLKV", "experiment": "receptor binding assay"}, "male Swiss Webster mice [2]": {"system": "male Swiss Webster mice", "experiment": "forced-swim test", "format": "in vivo, mouse", "details": "20 mg/kg, i.p., relative to desipramine (20 mg/kg)"}, "[3]": {"biological_target": "NET (norepinephrine transporter) (Homo sapiens, UniProt P23975)", "sequence (P23975 whole entry)": "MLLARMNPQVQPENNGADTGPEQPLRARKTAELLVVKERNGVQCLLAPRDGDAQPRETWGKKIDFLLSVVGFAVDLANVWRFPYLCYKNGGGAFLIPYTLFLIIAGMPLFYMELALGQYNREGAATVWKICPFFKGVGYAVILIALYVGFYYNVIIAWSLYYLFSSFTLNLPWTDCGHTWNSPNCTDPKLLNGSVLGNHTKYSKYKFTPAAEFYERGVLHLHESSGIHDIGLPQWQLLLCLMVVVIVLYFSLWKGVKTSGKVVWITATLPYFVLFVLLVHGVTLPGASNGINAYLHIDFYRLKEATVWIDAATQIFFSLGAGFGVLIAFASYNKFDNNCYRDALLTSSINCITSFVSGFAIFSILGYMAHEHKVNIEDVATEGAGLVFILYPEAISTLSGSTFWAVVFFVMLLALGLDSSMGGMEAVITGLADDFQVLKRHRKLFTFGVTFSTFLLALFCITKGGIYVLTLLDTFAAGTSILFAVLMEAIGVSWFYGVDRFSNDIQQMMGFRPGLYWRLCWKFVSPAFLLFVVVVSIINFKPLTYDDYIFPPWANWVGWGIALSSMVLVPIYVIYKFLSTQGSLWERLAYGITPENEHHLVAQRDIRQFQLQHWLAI", "experiment": "receptor binding assay"}, "male Swiss Webster mice [4]": {"system": "male Swiss Webster mice", "experiment": "locomotor activity test", "format": "in vivo, mouse", "details": "20 mg/kg, i.p."}, "[5]": {"biological_target": "SERT (serotonin transporter) (Homo sapiens, UniProt P31645)", "sequence (P31645 whole entry, species assumed)": "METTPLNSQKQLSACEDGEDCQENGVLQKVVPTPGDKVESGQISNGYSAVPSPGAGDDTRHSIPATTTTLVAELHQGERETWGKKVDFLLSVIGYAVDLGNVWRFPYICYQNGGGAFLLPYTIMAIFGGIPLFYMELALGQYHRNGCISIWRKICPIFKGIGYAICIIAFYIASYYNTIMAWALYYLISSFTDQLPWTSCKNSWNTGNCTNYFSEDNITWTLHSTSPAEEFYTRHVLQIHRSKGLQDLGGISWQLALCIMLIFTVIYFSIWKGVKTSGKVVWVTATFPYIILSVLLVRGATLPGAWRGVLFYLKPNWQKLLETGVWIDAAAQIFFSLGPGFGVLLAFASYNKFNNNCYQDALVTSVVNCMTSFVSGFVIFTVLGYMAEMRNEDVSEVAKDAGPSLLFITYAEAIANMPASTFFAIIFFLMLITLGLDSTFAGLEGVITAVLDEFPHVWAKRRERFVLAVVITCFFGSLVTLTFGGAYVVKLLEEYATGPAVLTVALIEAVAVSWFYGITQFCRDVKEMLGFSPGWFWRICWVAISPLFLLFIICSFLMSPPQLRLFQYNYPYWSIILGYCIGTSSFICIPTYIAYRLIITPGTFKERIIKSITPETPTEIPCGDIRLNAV", "experiment": "receptor binding assay"}, "sigma-2 receptor (σ 2)": {"biological_target": "T1, sigma-2 receptor (σ 2) (Rattus norvegicus, UniProt Q5U3Y7)", "T1 sequence (Q5U3Y7 1-176)": "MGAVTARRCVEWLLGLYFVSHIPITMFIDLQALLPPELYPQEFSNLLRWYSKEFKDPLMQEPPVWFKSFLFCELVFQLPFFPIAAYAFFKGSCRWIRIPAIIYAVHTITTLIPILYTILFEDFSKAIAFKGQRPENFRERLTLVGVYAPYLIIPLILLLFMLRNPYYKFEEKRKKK", "experiment": "receptor binding assay"}},
  "data": [
    {"smiles": "Cc1nccc2c1C(C)(C)Nc1cc(Br)ccc1-2", "note": "[Veranamine]", "values": [
      {"measurement": "affinity for dopamine transporter", "setting": "[1]", "result": "no affinity"},
      {"measurement": "immobility time in mouse forced-swim test", "setting": "male Swiss Webster mice [2]", "result": "decreasing the immobility time significantly"},
      {"measurement": "affinity for norepinephrine transporter", "setting": "[3]", "result": "no affinity"},
      {"measurement": "locomotor activity (nonspecific stimulant action)", "setting": "male Swiss Webster mice [4]", "result": "did not demonstrate nonspecific stimulant action"},
      {"measurement": "affinity for serotonin transporter", "setting": "[5]", "result": "no affinity"},
      {"measurement": "binding to the sigma-2 receptor", "setting": "sigma-2 receptor (σ 2)", "result": "did not bind"}
    ]}
  ]
}
